In the assay the test system is M. tuberculosis H37Rv growth inhibition. Nature of the assay: Confirmatory growth inhibition assay against Mycobacterium tuberculosis H37Rv, potency (AID 1949).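 Also: bacteria grown 7 days with compound before Alamar blue readout.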

In brackets after ≈: the same amount, converted by molar mass. Records with an inconclusive call do not appear. Activity calls are given as the source filed them. No rule for the calls is given here.

In the case of `COC(=O)COc1ccc(-c2ccccc2)cc1`, the IC50 (usually the midpoint of a concentration-inhibition curve) is 0.22 µg/mL (≈ 0.908 µM).

Regarding `COc1ccc(NC(=O)c2c(NC(=O)c3ccc([N+](=O)[O-])o3)sc3c2CCC3)cc1`, the IC50 is 0.26 µg/mL (≈ 0.608 µM).

Consider `Cc1ccc(C(=O)Nc2ccc([N+](=O)[O-])cc2C)cc1I`, for which the IC50 was less than 0.1 µg/mL.

Regarding `CCCCc1ccc(NC(=S)NC(=O)c2ccc(OCC)c(Cl)c2)cc1`, the half-inhibitory concentration (IC50) is 0.34 µg/mL (≈ 0.87 µM).

For the compound `CC(=O)N/C(=N/c1nc(C)cc(C)n1)Nc1ccc(C)cc1C`, the IC50 was > 50 µg/mL (inactive).

For the compound `CCCc1nc2ccccc2n1CC(O)COc1ccc(Br)cc1` (stereo not given), the half-maximal inhibitory concentration (IC50) is 4.08 µg/mL (≈ 10.5 µM).

Take `Cc1cc(C)c(N2CCN(S(=O)(=O)c3ccc(Cl)cc3)CC2)c(C)c1`: the IC50 is > 50 µg/mL (inactive).

Consider `CC(C)(C)c1ccc(C(=O)Nc2nc(-c3ccccc3)ns2)cc1`, for which the IC50 was 3.05 µg/mL (≈ 9.04 µM).

Turning to `COc1ccc(C(=O)C(CN2CCCCC2)c2ccccc2)cc1` (stereo not given), the concentration for half-maximal inhibition (IC50) is 3.15 µg/mL (≈ 9.74 µM).

Turning to `O=C(COc1ccc2c(-c3ccccc3)cc(=O)oc2c1)OC1CCCCC1`, the concentration for half-maximal inhibition (IC50) was less than 0.1 µg/mL.

Regarding `CCOc1ccc(N2C(=O)CC(Nc3ccccc3O)C2=O)cc1` (stereo not given), the IC50 was 4.58 µg/mL (≈ 14 µM).

`COC(=O)CSc1nnc(-c2ccccc2C)o1`: the 50% inhibitory concentration (IC50) is 4.38 µg/mL (≈ 16.6 µM).

Take `Clc1ccc(SCCCn2ccnc2)cc1`: the IC50 was 2.36 µg/mL (≈ 9.34 µM).

As to `O=C(CC12CC3CC(CC(C3)C1)C2)NC(=S)Nc1ccc(-c2nc3ccccc3[nH]2)cc1`, the half-maximal inhibitory concentration (IC50) is 1.46 µg/mL (≈ 3.28 µM).

As to `Cc1cc(OC(=O)c2ccco2)c2c3c(c(=O)oc2c1)CCCC3`, the half-maximal inhibitory concentration (IC50) is 23.4 µg/mL (≈ 72 µM).

In the case of `COc1ccc2cc(-c3nn(-c4ccccc4)cc3CO)ccc2c1`, the IC50 was > 50 µg/mL (inactive).

With `Nc1ncnc(Sc2ncccn2)c1[N+](=O)[O-]`, the IC50 was > 50 µg/mL (inactive).

Turning to `Cc1ccc(NC(=O)C(Cl)Cl)cc1[N+](=O)[O-]`, the IC50 was 2.18 µg/mL (≈ 8.29 µM).

Regarding `Cc1ccc(-c2[nH]c(-c3ccc([N+](=O)[O-])cc3)nc2-c2ccccc2)cc1`, the 50% inhibitory concentration (IC50) was 7.13 µg/mL (≈ 20.1 µM).

Take `O=C(CC1(O)C(=O)N(CCc2ccccc2)c2ccc(Cl)cc21)c1cccnc1` (stereo not given): the half-maximal inhibitory concentration (IC50) was 6.05 µg/mL (≈ 14.9 µM).

As for `O=C(CSc1ccc(F)cc1)Nc1ccccc1F`, the half-inhibitory concentration (IC50) was 5.83 µg/mL (≈ 20.9 µM).

As for `CC(C)(C)c1ccc(C(=O)Nc2ccc(NC(=S)NC(=O)c3cccs3)cc2)cc1`, the half-inhibitory concentration (IC50) was 0.46 µg/mL (≈ 1.05 µM).

Turning to `Cc1ccccc1Nc1nc(NCc2ccco2)c2ccccc2n1`, the IC50 was 2.64 µg/mL (≈ 7.99 µM).

Consider `O=C(c1cccc([N+](=O)[O-])c1)N1N=C(c2ccc(Br)cc2)CC1(O)C(F)(F)F` (stereo not given), for which the half-inhibitory concentration (IC50) is 2.13 µg/mL (≈ 4.65 µM).

Take `COc1ccc(CNC(=O)c2sc3nc4c(c(C(F)(F)F)c3c2N)CC(C)CC4)cc1OC` (stereo not given): the IC50 was > 50 µg/mL (inactive).

On to `CC1(C)CC(=O)C2=C(C1)NC(Nc1nc3ccccc3o1)=NC2c1cccc(Br)c1` (stereo not given), for which the half-maximal inhibitory concentration (IC50) is 3.24 µg/mL (≈ 6.96 µM).

With `COc1ccc(OC(=O)c2sc3ccccc3c2Cl)cc1`, the IC50 is > 50 µg/mL (inactive).

Consider `CC12CC3CC(C)(C1)CC(C(=O)NC1=NCCS1)(C3)C2`, for which the IC50 is 13 µg/mL (≈ 44.3 µM).

Take `CC(=O)c1ccc(NC(=O)NC(C)C23CC4CC(CC(C4)C2)C3)cc1` (stereo not given): the IC50 is 19 µg/mL (≈ 55.8 µM).

In the case of `Cc1ccc2nc(Cc3nc4ccc(C)cc4[nH]3)[nH]c2c1`, the IC50 is > 50 µg/mL (inactive).

With `CCc1ccc(C(=S)Nc2ccccc2)nc1`, the half-inhibitory concentration (IC50) is 2.23 µg/mL (≈ 9.2 µM).

As for `c1ccc(CN2CCN(CCCOc3cccc4ccccc34)CC2)cc1`, the IC50 is 4.68 µg/mL (≈ 13 µM).

Turning to `O=C(Cc1ccccc1)NC(=S)Nc1ccc(Oc2ccccc2)cc1`, the half-maximal inhibitory concentration (IC50) is 7.61 µg/mL (≈ 21 µM).

Consider `COC(=O)C(C)Oc1ccc2c(=O)c(Oc3ccccc3Cl)coc2c1` (stereo not given), for which the IC50 was 8.57 µg/mL (≈ 22.9 µM).

`Cn1nnc(NC(=O)COc2ccc(C3CCCCC3)cc2)n1`: the IC50 was 2.85 µg/mL (≈ 9.04 µM).

For the compound `COC(=O)c1ccc(OCC(=O)c2ccc(F)cc2)cc1`, the IC50 is > 50 µg/mL (inactive).

For `COc1ccc(-c2[nH]c(-c3ccc([N+](=O)[O-])cc3)nc2-c2ccccc2)cc1`, the IC50 is 2.33 µg/mL (≈ 6.27 µM).

On to `CCOc1ccc(NC(=O)CSc2nc3ccc([N+](=O)[O-])cc3s2)cc1`, for which the concentration for half-maximal inhibition (IC50) was 1.99 µg/mL (≈ 5.11 µM).

Turning to `COc1ccc(C(=O)NC(=S)Nc2ccc(N3CCCCC3)cc2)cc1OC`, the IC50 is 1.38 µg/mL (≈ 3.45 µM).

On to `CCC(C)NCCOc1ccc(C(C)(C)c2ccccc2)cc1` (stereo not given), for which the IC50 is 0.91 µg/mL (≈ 2.92 µM).

Take `O=C(Nc1ccc(-c2nc3ccccc3c(=O)o2)cc1)C(c1ccccc1)c1ccccc1`: the IC50 was > 50 µg/mL (inactive).

In the case of `Cc1ccc(CN2C(=O)C(=O)c3cc(Br)ccc32)c(C)c1`, the half-inhibitory concentration (IC50) was 8.44 µg/mL (≈ 24.5 µM).

Take `O=C(NCc1ccc(Cl)cc1)c1ccccc1-c1ccccc1`: the IC50 was 13.2 µg/mL (≈ 41.1 µM).

As to `O=C(OCc1ccccc1Cl)C1(O)c2ccccc2-c2ccccc21`, the IC50 is 2.76 µg/mL (≈ 7.87 µM).

As for `Cc1ccc(-c2[nH]c(-c3cc([N+](=O)[O-])ccc3O)nc2-c2ccccc2)cc1`, the IC50 is 5.58 µg/mL (≈ 15 µM).

For the compound `O=C(NCCC1=CCCCC1)C12CC3CC(CC(C3)C1)C2`, the half-maximal inhibitory concentration (IC50) is 11.2 µg/mL (≈ 39 µM).

Turning to `Cc1ccc(C(=O)NC(=S)Nc2ccc(S(=O)(=O)NC(C)C)cc2)cc1Br`, the IC50 was 3.75 µg/mL (≈ 7.97 µM).

Regarding `NC(=O)CSc1nnc(SCc2ccc(Cl)cc2)s1`, the IC50 is 5.19 µg/mL (≈ 15.6 µM).

Consider `COC(=O)CSc1nnc(SCc2ccc(OC)cc2)s1`, for which the IC50 is 2.28 µg/mL (≈ 6.66 µM).

Turning to `O=C(CSc1nc2ccccc2c(=O)[nH]1)NCc1ccccc1`, the IC50 was 0.28 µg/mL (≈ 0.86 µM).

(Values after PubChem BioAssay AID1949 (Southern Research Institute, 2009).)
